The text below walks through data of US20130266636A1, “METHODS FOR BLOCKING CELL PROLIFERATION AND TREATING DISEASES AND CONDITIONS RESPONSIVE TO CELL GROWTH INHIBITION” (THE REGENTS OF THE UNIVERSITY OF CALIFORNIA, priority 2010, published 2013).

Entries after “also recorded” stand apart in the source; their conditions may differ.

One assay concerns A549 cells. The assay is described as follows: Cell proliferation assay in A549 cells. It is filed as cell-based, human.
The subject of the next assay is XPA-1 cells. The assay is described as follows: Cell cycle analysis, bright field and confocal microscopy of XPA-1 cells. The assay is classed as cell-based, human. The settings on record: XPA-1 cells, 20 hours. Here is the method:
FIG. 38. […] FIG. 38(a) Bright field images (scale bar, 20 μm), cell cycle analysis and confocal microscopy images (scale bar, 10 μm, laminB in red and DNA in blue) of XPA-1 cells treated for 20 hours with the allosteric RAF inhibitor KG5, the ATP-competitive inhibitor Sorafenib, the MEK inhibitor PD0325901, the control compound KG1 at 5 μM or paclitaxel at 200 nM. Cells were harvested after 20 hours and the cell cycle stage was determined by flow cytometry and confocal microscopy. White arrows indicate cells arrested at pro-metaphase. Scale bars, 10 μm. FIG. 38(b) Representative confocal microscopy images of untreated XPA-1 tumor cells undergoing mitosis (left image) and XPA-1 cell arrested with KG5 at pro-metaphase (right image). Cells were stained with α-tubulin in red and DNA in blue. Scale bar, 10 μm. FIG. 38(c) XPA-1 cells transfected with a vector control or active MEK were treated with 1 μM KG5 for 20 hours or left untreated and the G2/M population was quantified by flow cytometry. Error bars represent s.d. (n=3); * two tailed p value=0.00063 using a Mann Whitney U test. FIG. 38(d) Immunoblot analysis of XPA-1 cells untreated or treated with 1 μM KG5 for 18 hours. Data are representative of four independent experiments. […] Error bars represent s.d. (n=3); * two tailed p value=0.010 using a Mann Whitney U test. Inset, Immunoblot analysis of HCT-116 cells untreated or treated with 1 μM KG5 for 18 hours.
FIG. 39. […] FIG. 39 graphically illustrates cell cycle analysis of XPA-1 cells treated with the allosteric RAF inhibitor KG5, the microtubule stabilizer paclitaxel, or the ATP-competitive RAF inhibitors sorafenib, L-779450, GW 5074, and ZM-336372. Cells were harvested after 6, 18, 24, 48 and 72 hours and the percentages of cells in G2/M and SubG1 were determined by flow cytometry. Data are representative of three independent experiments.
Cell cycle analysis was performed by flow cytometry following propidium iodide staining. Briefly, cells were harvested, fixed with ice cold methanol, treated for 45 min with 10 μg/ml of RNase and resuspended in PBS containing 10 μg/ml of PI, and analyzed by flow cytometry. Cell cycle analysis was performed in cells treated for 18 hours with the allosteric RAF inhibitor KG5, the ATP-competitive RAF inhibitors: sorafenib, L-779450, GW5074, and ZM-336372, the MEK inhibitor (PD0325901) at […] concentration or paclitaxel at 100 nM.

Another assay concerns the target CRAF (Homo sapiens, UniProt P04049). As to the kind of experiment: CRAF localization to the mitotic spindle, confocal microscopy of XPA-1 cells. It is filed as cell-based. Details: total CRAF and total MEK of lysates from XPA-1 cells treated with PD0325901, Sorafenib, L-779450, PLX4720, KG5 or KG1; endogenous in cells; host or cells: XPA-1. The source says: FIG. 35. […] Data are representative of three independent experiments. FIG. 35 (b) Confocal microscopy images of human pancreatic XPA-1 and glioblastoma U251 cells during mitosis, stained for phospho-5338 CRAF (in green), α-tubulin (in red) and DNA (TOPRO-3™ in blue). Scale bar, 10 μm. White arrows indicate localization of phospho-S338 CRAF at the mitotic spindle. FIG. 35 (c) Immunoblot analysis of γ-tubulin immunoprecipitates from human colon carcinoma HCT-116 cells asynchronized and synchronized at pro-metaphase. Data are representative of three independent experiments. FIG. 35(d) Immunohistochemical staining of phospho-S338 CRAF in tumor biopsies from breast cancer patients. Scale bar, 10 μm. FIG. 35(e) Confocal microscopy images of XPA-1 cells treated with KG5, sorafenib, ZM336372, L779450 or paclitaxel and stained for CRAF (in green), γ-tubulin (in red) and DNA (TOPRO-3™ in blue). Scale bar, 10 μm. White arrows indicate localization of CRAF at the spindle pole. White circle indicates the absence of CRAF at the spindle pole.
Cells attached to cover-slips were fixed with cold methanol and permeabilized in PBS containing 0.1% triton for two minutes and blocked for 60 minutes, at room temperature with 2% BSA in PBS. Cells were stained with antibodies to CRAF (Abcam), phospho-serine 338 CRAF (SantaCruz), phospho-serine 338 CRAF (Thermo Scientific), a tubulin (Calbiochem), γ tubulin (Abcam), laminB (SantaCruz), Plk1 (Abcam), phospho-T210 Plk1 (Abcam), or phospho-T288 Aurora A (cell signaling). All primary antibodies were used at 1:100 dilution, for two hours at room temperature. After washing several times with PBS, cells were stained for two hours at room temperature, with secondary antibody specific for mouse, rabbit or goat (Invitrogen), as appropriate, diluted 1:300 and co-incubated with the DNA dye TOPRO-3™ (1:500) (Invitrogen). Samples were mounted in VECTASHIELD™ hard-set mounting media (Vector Laboratories) and imaged on a Nikon ECLIPSE C1™ confocal microscope with a 1.4 NA 60× oil-immersion lens, using minimum pinhole (30 μm). Images were captured using EZ-C1-3.50 imaging software.

The test system of assay [1] is human breast (MDA-MB-231) carcinoma cell line. As to the kind of experiment: Cell viability assay in MDA-MB-231 cells. The assay is classed as cell-based. Particulars: for cell viability / potency relative to KG5 (cell viability EC50s): MDA-MB-231; for EC50: MDA-MB-231 breast cancer cell viability assays.
Assay [2] has as its system human lung (A549) carcinoma cell line. As to the kind of experiment: Cell viability assay in A549 cells. It is filed as cell-based. Particulars: for cell viability / potency relative to KG5 (cell viability EC50s): A549; for EC50: A549 lung cancer cells.
The subject of assay [3] is human breast (T47D) carcinoma cell line. As to the kind of experiment: Cell viability assay in T47D cells. Particulars: for cell viability / potency relative to KG5 (cell viability EC50s): T47D; for EC50: T47D breast cancer cells. The assay is classed as cell-based.

Chain of CRAF (P04049 whole entry): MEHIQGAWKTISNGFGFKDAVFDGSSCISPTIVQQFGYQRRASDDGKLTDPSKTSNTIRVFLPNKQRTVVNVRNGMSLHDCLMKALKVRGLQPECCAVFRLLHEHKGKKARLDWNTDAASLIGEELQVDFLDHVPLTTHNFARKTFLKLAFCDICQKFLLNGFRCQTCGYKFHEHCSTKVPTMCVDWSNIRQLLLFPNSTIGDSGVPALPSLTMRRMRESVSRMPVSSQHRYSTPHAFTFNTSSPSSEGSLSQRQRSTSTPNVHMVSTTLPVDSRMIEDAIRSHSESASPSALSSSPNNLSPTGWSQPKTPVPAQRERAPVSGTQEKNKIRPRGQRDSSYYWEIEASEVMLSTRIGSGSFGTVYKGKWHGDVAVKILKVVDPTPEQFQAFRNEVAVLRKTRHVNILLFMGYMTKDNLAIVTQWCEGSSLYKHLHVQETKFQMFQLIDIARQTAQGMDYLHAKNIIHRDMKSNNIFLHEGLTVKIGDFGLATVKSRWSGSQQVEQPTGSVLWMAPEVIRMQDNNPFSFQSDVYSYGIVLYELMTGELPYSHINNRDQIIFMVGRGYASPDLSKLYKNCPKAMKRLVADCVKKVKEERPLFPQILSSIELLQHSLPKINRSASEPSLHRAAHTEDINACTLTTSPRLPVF

With `CCCS(=O)(=O)Nc1ccc(F)c(C(=O)c2c[nH]c3ncc(-c4ccc(Cl)cc4)cc23)c1F` [PLX4032], the cell proliferation entry in the assay with A549 cells was “induce proliferation”.
Turning to `CC(=O)O[C@H]1C(=O)[C@@]2(C)[C@H]([C@H](OC(=O)c3ccccc3)[C@]3(O)C[C@H](OC(=O)[C@H](O)[C@@H](NC(=O)c4ccccc4)c4ccccc4)C(C)=C1C3(C)C)[C@]1(OC(C)=O)CO[C@@H]1C[C@@H]2O` [paclitaxel], the “arrest at pro-metaphase (confocal microscopy)” value with XPA-1 cells was “arrests cells at pro-metaphase”. The “CRAF localization to the mitotic spindle” value at CRAF is recorded as “does not affect CRAF localization to the mitotic spindle; also recorded: CRAF remained localized to the mitotic spindle”.
In the case of `CSc1nc(N)cc(Oc2ccc(-c3nnc(Nc4ccc(C)c(C)c4)[nH]3)cc2)n1` [H3-9, 6-(4-{5-[(3,4-dimethylphenyl)amino]-4H-1,2,4-triazol-3-yl}phenoxy)-2-(methylsulfanyl)pyrimidin-4-amine], in assay [1], the cell viability entry is recorded as “decrease cell viability”, the “potency relative to KG5 (cell viability EC50s)” value (shortened to “potency relative to KG5”) is “more potent than KG5” and the EC50 entry is reported as “approach picomolar (pM) EC50s”.
For `CSc1nc(N)cc(Oc2ccc(-c3nnc(Nc4cccc5c4CCCC5)[nH]3)cc2)n1` [H3-21, 2-(methylsulfanyl)-6-{4-[5-(5,6,7,8-tetrahydronaphthalen-1-ylamino)-4H-1,2,4-triazol-3-yl]phenoxy}pyrimidin-4-amine], in assay [2], the cell viability entry is given as “decrease cell viability”, the “potency relative to KG5” value is reported as “more potent than KG5” and the EC50 entry is on record as “approach picomolar (pM) EC50s”. Further, in assay [3], the cell viability result is given as “decrease cell viability”, the “potency relative to KG5” value is “more potent than KG5” and the EC50 entry was “approach picomolar (pM) EC50s”. Moreover, in assay [1], the cell viability result is given as “decrease cell viability”, the “potency relative to KG5” value is on record as “more potent than KG5” and the EC50 entry was “approach picomolar (pM) EC50s”.
On to `CSc1nc(N)cc(Oc2ccc(-c3nnc(Nc4cccc(C)c4C)[nH]3)cc2)n1` [H3-11, 6-(4-{5-[(2,3-dimethylphenyl)amino]-4H-1,2,4-triazol-3-yl}phenoxy)-2-(methylsulfanyl)pyrimidin-4-amine], for which, in assay [1], the cell viability result is recorded as “decrease cell viability”, the “potency relative to KG5” value was “more potent than KG5” and the EC50 entry was “approach picomolar (pM) EC50s”.
In the case of `CNC(=O)c1cc(Oc2ccc(NC(=O)Nc3ccc(Cl)c(C(F)(F)F)c3)cc2)ccn1` [Sorafenib], in the assay with XPA-1 cells, the “arrest at pro-metaphase (confocal microscopy)” value is “does not arrest cells at pro-metaphase”. The cell proliferation result in the assay with A549 cells was “induce proliferation”. The “CRAF localization to the mitotic spindle” value on CRAF is given as “does not prevent CRAF localization to the mitotic spindle or midbodies”.
`CCOc1nc(N)cc(Oc2ccc(-c3nnc(Nc4cccc(C(F)(F)F)c4)[nH]3)cc2)n1` [K1-72, 2-ethoxy-6-[4-(5-{[3-(trifluoromethyl)phenyl]amino}-4H-1,2,4-triazol-3-yl)phenoxy]pyrimidin-4-amine]: in assay [1], the cell viability result is given as “decrease cell viability”, the “potency relative to KG5” value is listed as “more potent than KG5” and the EC50 entry is reported as “approach picomolar (pM) EC50s”.
In the case of `CSc1nc(N)cc(Oc2ccc(-c3nnc(Nc4cc(C)ccc4C)[nH]3)cc2)n1` [H3-3, 6-(4-{5-[(2,5-dimethylphenyl)amino]-4H-1,2,4-triazol-3-yl}phenoxy)-2-(methylsulfanyl)pyrimidin-4-amine], the cell viability result in assay [2], in assay [3] and in assay [1] was “decrease cell viability” each time. Further, the “potency relative to KG5” value in assay [2], in assay [3] and in assay [1] was “more potent than KG5” throughout. For the same compound, the EC50 result in assay [2], in assay [3] and in assay [1] was “approach picomolar (pM) EC50s” each time.
Turning to `CSc1nc(N)cc(Oc2ccc(-c3nnc(Nc4cc(C)cc(C)c4)[nH]3)cc2)n1` [H3-7, 6-(4-{5-[(3,5-dimethylphenyl)amino]-4H-1,2,4-triazol-3-yl}phenoxy)-2-(methylsulfanyl)pyrimidin-4-amine], in assay [2], the cell viability entry is “decrease cell viability”, the “potency relative to KG5” value is on record as “more potent than KG5” and the EC50 entry is reported as “approach picomolar (pM) EC50s”. Besides, in assay [3], the cell viability entry is “decrease cell viability”, the “potency relative to KG5” value was “more potent than KG5” and the EC50 entry was “approach picomolar (pM) EC50s”. In addition, in assay [1], the cell viability result is “decrease cell viability”, the “potency relative to KG5” value was “more potent than KG5” and the EC50 result was “approach picomolar (pM) EC50s”.
